Experiments:
Type in all cases: in vivo
[1] = test system: barley, winter (Hordeum vulgare); experiment: Test D pre-/postemergence controlled growth environment test
Excerpt: (§1) Seeds of plant species selected from blackgrass (Alopecurus myosuroides), galium (catchweed bedstraw, Galium aparine), kochia (Kochia scoparia), oilseed rape (Brassica napus), barley, spring (Hordeum vulgare), wheat, spring (Triticum aestivum), oat, wild (Avena fatua), barley, winter (Hordeum vulgare) and wheat, winter (Triticum aestivum) were planted into a silt loam soil and treated preemergence with test chemicals formulated in a non-phytotoxic solvent mixture which included a surfactant.
(§2) At the same time, plants selected from these crop and weed species and also bluegrass (annual bluegrass, Poa annua), canarygrass (littleseed canarygrass, Phalaris minor), chickweed (common chickweed, Stellaria media), bromegrass, downy (downy bromegrass, Bromus tectorum), field poppy (Papaver rhoeas), field violet (Viola arvensis), foxtail, green (Setaria viridis), deadnettle (henbit deadnettle, Lamium amplexicaule), ryegrass, Italian (Lolium multiflorum), lambsquarters (Chenopodium album), pigweed (Amaranthus retroflexus), chamomile (scentless chamomile, Matricaria inodora), Russian thistle (Salsola kali), speedwell (bird's-eye speedwell, Veronica persica), buckwheat, wild (Polygonum convolvulus), mustard, wild (Sinapis arvensis), radish, wild (Raphanus raphanistrum), windgrass (Apera spica-venti), geranium, cutleaf (Geranium dissectum) and Canada thistle (Cirsium arvense) were planted in pots containing Redi-Earth® planting medium (Scotts Company, 14111 Scottslawn Road, Marysville, Ohio 43041) comprising spaghnum peat moss, vermiculite, wetting agent and starter nutrients and treated with postemergence applications of the test chemicals formulated in the same manner. Plants ranged in height from 2 to 18 cm (1- to 4-leaf stage). Treated plants and controls were maintained in a controlled growth environment for 14 to 21 d after which time all species were compared to controls and visually evaluated. Plant response ratings, summarized in Table D, are based on a scale of 0 to 100 where 0 is no effect and 100 is complete control. A dash (-) response means no test result.

[2] = test system: barley, spring (Hordeum vulgare); experiment: as above
Excerpt: as §1, §2

[3] = test system: wheat, spring (Triticum aestivum); experiment: as above
Excerpt: as §1, §2

[4] = test system: galium (catchweed bedstraw, Galium aparine); experiment: as above
Excerpt: as §1, §2

[5] = test system: oat, wild (Avena fatua); experiment: as above
Excerpt: as §1, §2

[6] = test system: wheat, winter (Triticum aestivum); experiment: as above
Excerpt: as §1, §2

[7] = test system: oilseed rape (Brassica napus); experiment: as above
Excerpt: as §1, §2

[8] = test system: kochia (Kochia scoparia); experiment: Test A pre-/postemergence greenhouse test
Excerpt: (§3) Seeds of plant species selected from barnyardgrass (Echinochloa crus-galli), kochia (Kochia scoparia), ragweed (common ragweed, Ambrosia elatior), ryegrass, Italian (Lolium multiflorum), foxtail, giant (Setaria faberii), foxtail, green (Setaria viridis) and pigweed (Amaranthus retroflexus) were planted into a blend of loam soil and sand and treated preemergence with a directed soil spray using test chemicals formulated in a non-phytotoxic solvent mixture which included a surfactant.
(§4) At the same time, plants selected from these weed species and also wheat (Triticum aestivum), corn (Zea mays), blackgrass (Alopecurus myosuroides) and galium (catchweed bedstraw, Galium aparine) were planted in pots containing the same blend of loam soil and sand and treated with postemergence applications of test chemicals formulated in the same manner. Plants ranged in height from 2 to 10 cm and were in the one- to two-leaf stage for the postemergence treatment. Treated plants and untreated controls were maintained in a greenhouse for approximately 10 d, after which time all treated plants were compared to untreated controls and visually evaluated for injury. Plant response ratings, summarized in Table A, are based on a 0 to 100 scale where 0 is no effect and 100 is complete control. A dash (-) response means no test result.

[9] = test system: ragweed (common ragweed, Ambrosia elatior); experiment: Test A pre-/postemergence greenhouse test
Excerpt: as §3, §4

[10] = test system: pigweed (Amaranthus retroflexus); experiment: Test A pre-/postemergence greenhouse test
Excerpt: as §3, §4

[11] = test system: barnyardgrass (Echinochloa crus-galli); experiment: Test A pre-/postemergence greenhouse test
Excerpt: as §3, §4

[12] = test system: ryegrass, Italian (Lolium multiflorum); experiment: Test A pre-/postemergence greenhouse test
Excerpt: as §3, §4

## Cc1cc(Cl)c2ccccc2c1-c1c(O)c(Cl)nn(C)c1=O [Cpd. No. 65]
[1]; Postemergence, 16 g ai/ha
  Plant response rating, Barley, Winter: 60
[1]; Postemergence, 31 g ai/ha
  Plant response rating, Barley, Winter: 72
[1]; Postemergence, 62 g ai/ha
  Plant response rating, Barley, Winter: 83
[1]; Postemergence, 125 g ai/ha
  Plant response rating, Barley, Winter: 90
[1]; Preemergence, 16 g ai/ha
  Plant response rating, Barley, Winter: 0
[1]; Preemergence, 31 g ai/ha
  Plant response rating, Barley, Winter: 3
[1]; Preemergence, 62 g ai/ha
  Plant response rating, Barley, Winter: 7
[1]; Preemergence, 125 g ai/ha
  Plant response rating, Barley, Winter: 23
[2]; Postemergence, 16 g ai/ha
  Plant response rating, Barley, Spring: 57
[2]; Postemergence, 31 g ai/ha
  Plant response rating, Barley, Spring: 78
[2]; Postemergence, 62 g ai/ha
  Plant response rating, Barley, Spring: 88
[2]; Postemergence, 125 g ai/ha
  Plant response rating, Barley, Spring: 93
[2]; Preemergence, 16 g ai/ha
  Plant response rating, Barley, Spring: 0
[2]; Preemergence, 31 g ai/ha
  Plant response rating, Barley, Spring: 3
[2]; Preemergence, 62 g ai/ha
  Plant response rating, Barley, Spring: 5
[2]; Preemergence, 125 g ai/ha
  Plant response rating, Barley, Spring: 73
[3]; Postemergence, 16 g ai/ha
  Plant response rating, Wheat, Spring: 90
[3]; Postemergence, 31 g ai/ha
  Plant response rating, Wheat, Spring: 93
[3]; Postemergence, 62 g ai/ha
  Plant response rating, Wheat, Spring: 93
[3]; Postemergence, 125 g ai/ha
  Plant response rating, Wheat, Spring: 93
[3]; Preemergence, 16 g ai/ha
  Plant response rating, Wheat, Spring: 63
[3]; Preemergence, 31 g ai/ha
  Plant response rating, Wheat, Spring: 78
[3]; Preemergence, 62 g ai/ha
  Plant response rating, Wheat, Spring: 90
[3]; Preemergence, 125 g ai/ha
  Plant response rating, Wheat, Spring: 100
[4]; Postemergence, 16 g ai/ha
  Plant response rating, Galium: 85
[4]; Postemergence, 31 g ai/ha
  Plant response rating, Galium: 97
[4]; Postemergence, 62 g ai/ha
  Plant response rating, Galium: 97
[4]; Postemergence, 125 g ai/ha
  Plant response rating, Galium: 98
[4]; Preemergence, 16 g ai/ha
  Plant response rating, Galium: 13
[4]; Preemergence, 31 g ai/ha
  Plant response rating, Galium: 82
[4]; Preemergence, 62 g ai/ha
  Plant response rating, Galium: 98
[4]; Preemergence, 125 g ai/ha
  Plant response rating, Galium: 100
[5]; Postemergence, 16 g ai/ha
  Plant response rating, Oat, Wild: 92
[5]; Postemergence, 31 g ai/ha
  Plant response rating, Oat, Wild: 92
[5]; Postemergence, 62 g ai/ha
  Plant response rating, Oat, Wild: 96
[5]; Postemergence, 125 g ai/ha
  Plant response rating, Oat, Wild: 99
[5]; Preemergence, 16 g ai/ha
  Plant response rating, Oat, Wild: 28
[5]; Preemergence, 31 g ai/ha
  Plant response rating, Oat, Wild: 80
[5]; Preemergence, 62 g ai/ha
  Plant response rating, Oat, Wild: 83
[5]; Preemergence, 125 g ai/ha
  Plant response rating, Oat, Wild: 97
[6]; Postemergence, 16 g ai/ha
  Plant response rating, Wheat, Winter: 85
[6]; Postemergence, 31 g ai/ha
  Plant response rating, Wheat, Winter: 90
[6]; Postemergence, 62 g ai/ha
  Plant response rating, Wheat, Winter: 90
[6]; Postemergence, 125 g ai/ha
  Plant response rating, Wheat, Winter: 92
[6]; Preemergence, 16 g ai/ha
  Plant response rating, Wheat, Winter: 23
[6]; Preemergence, 31 g ai/ha
  Plant response rating, Wheat, Winter: 67
[6]; Preemergence, 62 g ai/ha
  Plant response rating, Wheat, Winter: 80
[6]; Preemergence, 125 g ai/ha
  Plant response rating, Wheat, Winter: 93
[7]; Postemergence, 16 g ai/ha
  Plant response rating, Oilseed Rape: 85
[7]; Postemergence, 31 g ai/ha
  Plant response rating, Oilseed Rape: 87
[7]; Postemergence, 62 g ai/ha
  Plant response rating, Oilseed Rape: 90
[7]; Postemergence, 125 g ai/ha
  Plant response rating, Oilseed Rape: 100
[7]; Preemergence, 16 g ai/ha
  Plant response rating, Oilseed Rape: 0
[7]; Preemergence, 31 g ai/ha
  Plant response rating, Oilseed Rape: 18
[7]; Preemergence, 62 g ai/ha
  Plant response rating, Oilseed Rape: 85
[7]; Preemergence, 125 g ai/ha
  Plant response rating, Oilseed Rape: 100
[8]; Postemergence, 31 g ai/ha
  Plant response rating (0 to 100 scale): 80
[8]; Postemergence, 125 g ai/ha
  Plant response rating (0 to 100 scale): 100
[8]; Preemergence, 31 g ai/ha
  Plant response rating (0 to 100 scale): 0
[8]; Preemergence, 125 g ai/ha
  Plant response rating (0 to 100 scale): 80
[9]; Postemergence, 31 g ai/ha
  Plant response rating (0 to 100 scale): 100
[9]; Postemergence, 125 g ai/ha
  Plant response rating (0 to 100 scale): 100
[9]; Preemergence, 31 g ai/ha
  Plant response rating (0 to 100 scale): 100
[9]; Preemergence, 125 g ai/ha
  Plant response rating (0 to 100 scale): 100
[10]; Postemergence, 31 g ai/ha
  Plant response rating (0 to 100 scale): 100
[10]; Postemergence, 125 g ai/ha
  Plant response rating (0 to 100 scale): 100
[10]; Preemergence, 31 g ai/ha
  Plant response rating (0 to 100 scale): 100
[10]; Preemergence, 125 g ai/ha
  Plant response rating (0 to 100 scale): 100
[11]; Postemergence, 31 g ai/ha
  Plant response rating (0 to 100 scale): 100
[11]; Postemergence, 125 g ai/ha
  Plant response rating (0 to 100 scale): 100
[11]; Preemergence, 31 g ai/ha
  Plant response rating (0 to 100 scale): 100
[11]; Preemergence, 125 g ai/ha
  Plant response rating (0 to 100 scale): 100
[12]; Postemergence, 31 g ai/ha
  Plant response rating (0 to 100 scale): 100
[12]; Postemergence, 125 g ai/ha
  Plant response rating (0 to 100 scale): 100
[12]; Preemergence, 31 g ai/ha
  Plant response rating (0 to 100 scale): 100
[12]; Preemergence, 125 g ai/ha
  Plant response rating (0 to 100 scale): 100

— US12435044B2, “Pyridazinone herbicides and pyridazinone intermediates used to prepare a herbicide” (FMC Corporation, priority 2018, dated 2025)
